Source: patent publication US10602680B2, “Method of internal seed disinfection by combining seed priming with vacuum infiltration” (priority 2014, dated 2020)

Key:
[1] = tested on: Acidovorax avenae subsp. citrulli; conditions: on Acidovorax avenae subsp. citrulli; reported by Layne Wade, 2006; cited from earlier work
[2] = tested on: Acidovorax avenae subsp. citrulli; assay: 10 minute soak of externally infected diploid watermelon seeds in antibiotic solutions; assay type: in vivo
Procedure: The effectiveness of using an antibiotic solution combined with matrix priming for disinfecting triploid watermelon seeds internally infected with Acidovorax avenae subsp. citrulli has been tested. In order to screen for effective antibiotics, diploid watermelon seeds were obtained which were externally infected with Acidovorax avenae subsp. citrulli. […] Infected seeds were soaked for 10 minutes in antibiotic solutions of 100 ppm, 250 ppm, and 500 ppm of the above antibiotics. Dosage was chosen based on information reported by Layne Wade (21st Annual Tomato Disease Workshop, Asheville, N.C., November 2006) which stated that the MIC (minimum inhibitory concentration) of Kasugamycin on Acidovorax avenae subsp. citrulli is greater than 100 ppm.

[3] = tested on: triploid watermelon seeds; assay: Phytotoxicity screening by vacuum infiltration followed by matrix priming
Procedure: Step 110 involves choosing which species of seed will be sought to be disinfected. […] Thus, in step 130, a phytotoxicty screening is carried out on the chosen seeds using the chosen treatment. […] For example, the inventors screened the antibiotic Oxytetracycline using the method of adding chemicals to the water used in matrix priming (Eastin, J. A., 2000, U.S. Pat. No. 6,076,301) and the method of the present invention. Water containing 500 ppm of Oxytetracycline was used to prime triploid watermelon seeds using matrix priming. Further, the same seed was treated with vacuum infiltration using 500 ppm Oxytetracycline solutions for 6 hours, which was followed by a matrix priming using water. For a control, seed of the same lot was treated using vacuum infiltration with water, followed by matrix priming using water. Also, untreated seeds were preserved as an additional control.

[4] = tested on: Acidovorax avenae subsp. citrulli; assay: 30 minute soak of infected diploid watermelon seeds, screening against the target disease; assay type: in vivo
Source text: Substances with suitable levels of phytotoxicity are then screened for their affectivity against target diseases. For an example, the inventors screened the antibiotic piperacillin/tazobactam, and electrolyzed water for its affectivity against Acidovorax avenae subsp. citrulli on diploid watermelons seeds. […] This serves only as an example, and any method of screening can be used either in vivo or in vitro to screen for affectivity against target diseases and appropriate dose.

[5] = tested on: Xanthomonas campestris pv. Campestris; assay: Osmotic priming with PEG followed by vacuum infiltration of infected broccoli seeds: presence of disease; assay type: in vivo; conditions: osmotic priming for 4 days followed by 6 hours of vacuum infiltration with 500 ppm
Procedure: Determination of proper length of priming treatment and vacuum filtration treatment are performed on an empirical basis. For an example, the inventors identified proper treatment length in the following manner. A lot of broccoli seeds infected with Xanthomonas campestris pv. Campestris were treated with the following treatment regiments. […] Seeds were tested after treatments for both germination and presence of the disease Xanthomonas campestris pv. Campestris.

[6] = tested on: Acidovorax avenae subsp. citrulli; conditions: 1% solution, soak for 15 minutes; cited from earlier work
[7] = further screening using the same format, concentrations not given

Compound	elimination of bacteria on seeds ([2]; 250 ppm)	elimination of bacteria on seeds ([2]; 500 ppm)	phytotoxicity ([3]; in vivo)	other results
C[C@H]1O[C@H](O[C@H]2[C@H](O)[C@@H](O)[C@@H](O)[C@H](O)[C@@H]2O)[C@@H](N)C[C@@H]1NC(=N)C(=O)O [Kasugamycin]	effective	effective		MIC (minimum inhibitory concentration) [1]: greater than 100 ppm
CO/N=C(\C(=O)N[C@@H]1C(=O)N2C(C(=O)O)=C(CSc3nc(=O)c(=O)[nH]n3C)CS[C@H]12)c1csc(N)n1 [Ceftriaxone sodium]			no phytotoxic effects	elimination of bacteria on seeds ([2]; any dose (100 ppm, 250 ppm, 500 ppm)): not effective
O=C(N[C@H](CO)[C@H](O)c1ccc([N+](=O)[O-])cc1)C(Cl)Cl [Chloramphenicol]	effective	effective	phytotoxic	
Piperacillin/tazobactam	effective	effective		elimination of the bacteria ([4]; 100 ppm): not effective; elimination of the bacteria ([4]; 250 ppm): effective; eradication of seed borne disease [5]: eradicated
Colistin sulphate	effective	effective		phytotoxicity [3, 7]: mild phytotoxic effects
O=P([O-])([O-])[O-].[Na+].[Na+].[Na+] [trisodium phosphate]				phytotoxicity [3, 7]: phytotoxic
CCn1cc(C(=O)O)c(=O)c2cc3c(cc21)OCO3 [Oxalinic acid]	effective	effective	phytotoxic	
Trimethoprim-sulfamethoxazole	effective	effective		
[Ca+2].[O-]Cl.[O-]Cl [calcium hypochlorite]				elimination from watermelon seeds [6]: not effective
